Results: patent US8546451B2 (priority 2005, dated 2013)
Marks after values point to notes of the source that are not given here.

Key:
[1] = Oral pharmacokinetics in dogs; format: in vivo
Procedure: (§1) Formulations using polyethylene glycol 300 (PEG300) generally produced higher exposures than microemulsions prepared in Tween 80 diluted in deionized water. […] Importantly, in dogs the exposure in the male 30 mg/kg PEG300 oral dose group exceeded the exposure necessary to produce the maximal effect on prostate reduction in the rat model of LH suppression.

[2] = tested on: rats; assay: Gastrointestinal effects in rats; format: in vivo; conditions: oral
[3] = Oral bioavailability in rats; format: in vivo
Procedure: as §1

[4] = tested on: morphine dependent rat model; assay: Hot flashes in morphine dependent rat model (tail skin temperature); format: in vivo; conditions: morphine withdrawal model
Procedure: FIG. 13 depicts effect of Compound IV on attenuation of hot flashes in morphine withdrawal model with 5 mg/kg, 10 mg/kg, 15 mg/kg and 30 mg/kg dosages. N=7 animals per group. 17β-E2 was used at 5 mg/kg in 100% DMSO. (See Example 14.)
In addition to the similarities to the human condition, this experimental animal model has a short turn around time which makes it a useful high throughput screening tool for identifying compounds that can alleviate vasomotor symptoms using the tail skin temperature (TST). TST probes TA-40 (Data Sciences International, MN) were taped to the base of the tails and baseline temperatures were obtained for 15 minutes. After 15 minutes the animals were treated with naloxone (1 mg/kg, SQ) to reverse the effects of the morphine. Tail skin temperature (TST) was measured for one hour post-naloxone treatment with a sampling frequency of 5 secs throughout the course of the experiment. Following the data acquisition, the moving average of the temperature recorded every 60 seconds for each animal was calculated and further analyzed. Baseline temperature was computed as the average temperature acquired over the 15 minutes preceding naloxone administration. The area under the curve (AUC) was calculated by subtracting all the values post-naloxone administration from the baseline using a linear trapezoid method.

[5] = tested on: liver X receptor (LXR); assay: Cross-reactivity transcriptional activation assay, LXR; format: cell-based, human; conditions: agonist and antagonist modes
Text: (§2) Compound IV was screened for cross-reactivity against rat isoforms of glucocorticoid receptor (GR), mineralocorticoids receptor (MR), progesterone receptor (PR), androgen receptor (AR) and human isoforms of farnesoid X receptor (FXR), liver X receptor (LXR), peroxisome proliferator-activated receptors (PPAR-α and PPAR-γ), and retinoid X receptor (RXR-α) in both agonist and antagonist modes in transcriptional activation assays.

[6] = tested on: human platelets; assay: In vitro human platelet aggregation assay (thrombin-induced); conditions: platelet rich plasma preincubated 30 seconds; thrombin 0.3 units
[7] = tested on: rat bone, organ weight, and serum hormone parameters; assay: Bone preservation despite reduction of LH and testosterone in rats; format: in vivo; conditions: for Bone Mineral Density / FSH / LH / Levator Ani Muscle weight / Percent Bone Volume (BV/TV) / Prostate weight / Seminal Vesicles weight: Intact
[8] = molecular target: PPAR-α (Homo sapiens (Human), UniProt Q07869); assay: Cross-reactivity transcriptional activation assay, PPAR-α; format: cell-based; conditions: agonist and antagonist modes
PPAR-α, sequence (Q07869 whole entry): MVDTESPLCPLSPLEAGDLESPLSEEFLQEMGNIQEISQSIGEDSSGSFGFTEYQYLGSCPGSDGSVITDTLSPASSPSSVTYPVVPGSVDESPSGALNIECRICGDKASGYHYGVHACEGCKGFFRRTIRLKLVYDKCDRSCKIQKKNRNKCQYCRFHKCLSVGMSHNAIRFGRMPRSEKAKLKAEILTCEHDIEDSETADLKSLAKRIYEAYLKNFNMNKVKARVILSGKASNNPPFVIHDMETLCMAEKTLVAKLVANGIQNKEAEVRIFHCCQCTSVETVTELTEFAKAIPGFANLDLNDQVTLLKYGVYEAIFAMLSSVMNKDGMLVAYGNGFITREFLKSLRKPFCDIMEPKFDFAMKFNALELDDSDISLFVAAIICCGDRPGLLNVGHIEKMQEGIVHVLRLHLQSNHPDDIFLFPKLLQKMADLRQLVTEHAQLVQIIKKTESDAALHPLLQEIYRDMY
Text: as §2

[9] = tested on: estrogen related receptor (ERR-α, ERR-β and ERR-γ); assay: DES versus Compound IV, ERR transactivation (FIG. 12C); format: cell-based
[10] = tested on: isolated canine Purkinje fibers; assay: Action potential duration in isolated canine Purkinje fibers; conditions: 10 and 100 μM
[11] = Renal function after single oral dose; format: in vivo
[12] = tested on: CYP3A4; assay: CYP450 induction in vitro, CYP3A4; format: in vitro ADME
[13] = Neuropharmacological and pulmonary safety pharmacology; conditions: in vivo
[14] = molecular target: Human 17β-HSD5 (Homo sapiens (Human), UniProt P42330); assay: 17β-HSD5 enzyme activity assay; format: biochemical; conditions: 14C androstenedione to testosterone, TLC (FIG. 3)
Human 17β-HSD5, sequence (P42330 whole entry): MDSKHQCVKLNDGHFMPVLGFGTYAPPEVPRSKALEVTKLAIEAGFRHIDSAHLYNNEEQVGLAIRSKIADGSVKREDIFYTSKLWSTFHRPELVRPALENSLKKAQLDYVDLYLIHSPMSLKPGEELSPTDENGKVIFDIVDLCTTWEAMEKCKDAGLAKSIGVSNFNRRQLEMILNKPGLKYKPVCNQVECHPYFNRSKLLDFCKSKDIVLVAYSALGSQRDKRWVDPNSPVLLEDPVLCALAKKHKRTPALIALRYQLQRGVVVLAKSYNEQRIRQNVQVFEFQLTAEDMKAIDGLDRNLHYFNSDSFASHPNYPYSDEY

[15] = tested on: intact and ORX rats; assay: Prostate size, Compound IV versus DES in rats; format: in vivo
[16] = molecular target: PPAR-γ (Homo sapiens (Human), UniProt P37231); assay: Cross-reactivity transcriptional activation assay, PPAR-γ; format: cell-based; conditions: agonist and antagonist modes
PPAR-γ, sequence (P37231 whole entry): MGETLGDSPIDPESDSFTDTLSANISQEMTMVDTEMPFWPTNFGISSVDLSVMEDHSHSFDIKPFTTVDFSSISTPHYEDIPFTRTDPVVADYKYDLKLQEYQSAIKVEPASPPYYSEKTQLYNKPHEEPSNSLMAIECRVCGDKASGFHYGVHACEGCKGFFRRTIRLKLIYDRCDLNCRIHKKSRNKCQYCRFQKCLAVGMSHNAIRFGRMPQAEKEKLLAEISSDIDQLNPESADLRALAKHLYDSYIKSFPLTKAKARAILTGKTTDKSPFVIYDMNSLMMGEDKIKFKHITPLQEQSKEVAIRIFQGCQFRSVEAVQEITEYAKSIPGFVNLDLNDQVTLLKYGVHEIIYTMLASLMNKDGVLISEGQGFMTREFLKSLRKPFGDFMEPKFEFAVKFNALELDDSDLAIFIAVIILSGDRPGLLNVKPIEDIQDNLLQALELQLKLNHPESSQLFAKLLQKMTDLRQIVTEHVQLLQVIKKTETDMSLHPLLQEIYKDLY
Text: as §2

[17] = tested on: CYP2B6; assay: CYP450 induction in vitro, CYP2B6; format: in vitro ADME
[18] = tested on: LH, serum PSA, free testosterone and total testosterone; assay: Compound IV study on human males; format: in vivo

O=C(c1ccc(O)c(F)c1)N(c1ccc(O)cc1)c1ccc(F)cc1 [Compound IV, 3-fluoro-N-(4-fluorophenyl)-4-hydroxy-N-(4-hydroxyphenyl)benzamide]
absorption following oral dosing [1]: rapidly absorbed | enterohepatic recirculation ([1]; second peak in the terminal phase of plasma concentration-time profiles): undergoes enterohepatic recirculation | gastrointestinal motility and gastric acidity ([2]; 30 mg/kg): significant increase | peristalsis ([2]; 30 to 300 mg/kg): significant increase | absorption following oral dosing [3]: rapidly absorbed | bioavailability ([3]; rat, in vivo, po, depending on the formulation): 6 to 25% | dose with the best results [4]: 10 mg | effect on hot flushes ([4]; 5, 10, 15 and 30 mg/kg (FIG. 13)): attenuated hot flushes | agonist or antagonist activity [5]: did not display any agonist or antagonist activity | effect on thrombin-induced platelet aggregation [6]: decreased aggregation | Bone Mineral Density ([7]; 1 mg/kg per day oral): 0.273^b g/cm^3 | FSH ([7]; 1 mg/kg per day oral): 14.1^a,b ng/mL | LH ([7]; 1 mg/kg per day oral): 0.820^b ng/mL | Levator Ani Muscle weight ([7]; 1 mg/kg per day oral): 80.0^a,b % of Intact | Percent Bone Volume (BV/TV) ([7]; 1 mg/kg per day oral): 20.0^b % | Prostate weight ([7]; 1 mg/kg per day oral): 69.2^a,b % of Intact | Seminal Vesicles weight ([7]; 1 mg/kg per day oral): 44.6^a,b % of Intact | Bone Mineral Density ([7]; 10 mg/kg per day oral): 0.326^a,b g/cm^3 | FSH ([7]; 10 mg/kg per day oral): 5.48^a,b ng/mL | LH ([7]; 10 mg/kg per day oral): 0.060^a,b ng/mL | Levator Ani Muscle weight ([7]; 10 mg/kg per day oral): 58.1^a % of Intact | Percent Bone Volume (BV/TV) ([7]; 10 mg/kg per day oral): 25.9^a,b % | Prostate weight ([7]; 10 mg/kg per day oral): 30.7^a,b % of Intact | Seminal Vesicles weight ([7]; 10 mg/kg per day oral): 12.8^a,b % of Intact | Bone Mineral Density ([7]; 30 mg/kg per day oral): 0.326^a,b g/cm^3 | FSH ([7]; 30 mg/kg per day oral): 6.32^a,b ng/mL | LH ([7]; 30 mg/kg per day oral): 0.078^a,b ng/mL | Levator Ani Muscle weight ([7]; 30 mg/kg per day oral): 56.1^a % of Intact | Percent Bone Volume (BV/TV) ([7]; 30 mg/kg per day oral): 25.5^a,b % | Prostate weight ([7]; 30 mg/kg per day oral): 30.1^a,b % of Intact | Seminal Vesicles weight ([7]; 30 mg/kg per day oral): 14.4^a,b % of Intact | dose levels with significant reduction of LH ([7]; intact animals): ≥ 10 mg/kg per day | bone loss associated with LH suppression ([7]; intact male rats, orally administered): completely prevented the bone loss | agonist or antagonist activity [8]: did not display any agonist or antagonist activity | effect on ERR transactivation [9]: failed to crossreact | APD50 [10]: decreased | APD90 [10]: decreased | effects on renal function ([11]; highest dose tested (100 mg/kg)): increased urine volume output and urinary excretion of potassium and chloride | effects on renal function ([11]; single oral dose of up to 30 mg/kg): No significant effects | induction of CYP3A4 [12]: does not induce | neuropharmacological or pulmonary effects [13]: No neuropharmacological or pulmonary effects were observed | effect on 17β-HSD5 enzyme activity [14]: partial inhibitory effect | prostate size of ORX rats ([15]; ORX rats (FIG. 11B)): moderate increase | reduction of prostate size ([15]; rats (FIG. 11A), compared with DES): as effective as DES | agonist or antagonist activity [16]: did not display any agonist or antagonist activity | induction of CYP2B6 [17]: does not induce | Free Testosterone, mean change from baseline ([18]; 100 mg): −17.0% | LH, mean change from baseline ([18]; 100 mg): 20.7% | Serum PSA, mean change from baseline ([18]; 100 mg): −9.2% | Total Testosterone, mean change from baseline ([18]; 100 mg): 3.9% | decrease of PSA levels ([18]; 100 mg): 9.2% | decrease of free testosterone levels ([18]; 100 mg): 17.0% | Free Testosterone, mean change from baseline ([18]; 300 mg): −18.5% | LH, mean change from baseline ([18]; 300 mg): 46.9% | Serum PSA, mean change from baseline ([18]; 300 mg): −24.4% | Total Testosterone, mean change from baseline ([18]; 300 mg): 7.3% | decrease of PSA levels ([18]; 300 mg): 24.4% | decrease of free testosterone levels ([18]; 300 mg): 18.5% | Free Testosterone, mean change from baseline ([18]; 600 mg): −72.7% | LH, mean change from baseline ([18]; 600 mg): 27.6% | Serum PSA, mean change from baseline ([18]; 600 mg): −27.5% | Total Testosterone, mean change from baseline ([18]; 600 mg): −51.9% | decrease of PSA levels ([18]; 600 mg): 27.5% | decrease of free testosterone levels ([18]; 600 mg): 72.7% | decrease of total testosterone level ([18]; 600 mg): 51.9% | Free Testosterone, mean change from baseline ([18]; 1000 mg): −53.2% | LH, mean change from baseline ([18]; 1000 mg): 29.2% | Serum PSA, mean change from baseline ([18]; 1000 mg): −29.9% | Total Testosterone, mean change from baseline ([18]; 1000 mg): −47.9% | decrease of PSA levels ([18]; 1000 mg): 29.9% | decrease of free testosterone levels ([18]; 1000 mg): 53.2% | decrease of total testosterone level ([18]; 1000 mg): 47.9% | changes of PSA levels ([18]; 10 and 30 mg doses): No changes
